Literature values in US8735434B2, “Compounds as cannabinoid receptor ligands” (priority 2007, dated 2014).

How the values were obtained:
animal models = details: acute thermal pain, persistent pain, inflammatory pain, neuropathic pain
microglial = details: in vitro
mice = details: model for post-menopausal osteoporosis
[1] = test system: apolipoprotein E knockout mice
rat = rat formalin model of persistent pain
rodent models = details: neuropathic, incisional, chronic and acute inflammatory pain

Question: With `CN1CCCCC1Cn1cc(C(=O)c2cc([N+](=O)[O-])ccc2I)c2ccccc21` (stereo not drawn) [AM-1241] as the compound, how does the analgesic efficacy (animal models) read?
Answer: robust analgesic efficacy

Question: Which “effect on β-amyloid-induced microglial activation and neurotoxicity” value (microglial) does the source give for `CCCC(C)(C)c1ccc2c(c1)OC(C)(C)[C@@H]1CC=C(C)C[C@@H]21` [JWH-133] here?
Answer: abrogated

Question: Which “block of the JWH-133 effects on microglial activation and neurotoxicity” value (microglial; against JWH-133) does the source give for SR144528 here?
Answer: can be blocked

Question: What about the “effect on ovariectomy-induced bone loss” value (mice) of the same compound?
Answer: reverse ovariectomy-induced bone loss

Question: What about the “effect on osteoclast activity” value (osteoclast) of the same compound?
Answer: inhibit osteoclast activity

Question: And the “inhibition of the THC effects on atherosclerotic lesions” value ([1]; against THC)?
Answer: these effects were inhibited

Question: Which antinociceptive response (rat) does the source give for `CCCCCCC(C)(C)c1cc(OC)c([C@@H]2C=C(CO)[C@@H]3C[C@H]2C3(C)C)c(OC)c1` [HU-308] here?
Answer: elicits an antinociceptive response

Question: With (−)-Δ^9-Tetrahydrocannabinol [THC] as the compound, how does the “progression of atherosclerotic lesions” value ([1]; low doses) read?
Answer: slowed the progression of atherosclerotic lesions

Question: Which “efficacy in pain models” value (rodent models) does the source give for `COc1ccc2c(c1)c(CCN1CCOCC1)c(C)n2C(=O)c1cccc(Cl)c1Cl` [GW405833] here?
Answer: efficacious
